Test results reported in US6974804B2, “Esters” (Unilever Home & Personal Care USA, division of Conopco, Inc., priority 2000, dated 2005).

Assay: Gelling of water-immiscible cosmetic liquids in 96 well glass micro-titre plate
Type: physicochemical
Design: key: gel; g4: gel after overnight (18 hrs) storage at 4° C.; g22: gel after overnight (18 hrs) storage at 22° C.; sg: soft gel; sg22: soft gel after overnight (18 hrs) storage at 22° C.; solution; *: the test at 4° C. was not carried out
Details: for gelling of ISA: 150° C. 2.5 hours, cooled to ambient
Experimental: In this Example, various samples of esterified cellobiose prepared as in Example 1 or 2 above, were used to gel water-immiscible cosmetic liquids, in accordance with the procedure given below, in which a large number of gels can be prepared simultaneously.
The samples were tested in a 96 well (8×12 rows) glass micro-titre plate. […] About 0.01 or 0.02 g of each esterified cellobiose material was placed into 8 consecutive wells in a single row, so that each well contained approximately 5% or 10% of the cellobiose ester. The balance in each well comprised the cosmetic liquid by addition of approximately 0.2 g of the respective liquid to each cell. A glass lid was placed on top of the plate. The plate was carefully placed in a thermostatically controlled fan-assisted oven set at 150° C. for 2.5 hours. The plate was removed from the oven and allowed to cool naturally to ambient laboratory temperature. The contents of the wells were assessed at the end of the cooling period, by visual inspection and by poking the contents of each well with a micro-spatula. The plates were stored at […] for 18 hours and the contents inspected, and further stored for 18 hours at 4° C. and inspected for a third time. The results obtained in the tests are summarised in Table 5 below, in which the legend is as follows: […]

[1] = 5% cellobiose ester in Fluid AP
[2] = 5% cellobiose ester in Mineral oil
[3] = 5% cellobiose ester in Polydecene
[4] = 10% cellobiose ester in Fluid AP
[5] = 10% cellobiose ester in Mineral oil
[6] = 10% cellobiose ester in Polydecene

CCCCCCCCC(=O)OCC1OC(OC2C(COC(=O)CCCCCCCC)OC(OC(=O)C3CCCCC3)C(OC(=O)CCCCCCCC)C2OC(=O)CCCCCCCC)C(OC(=O)CCCCCCCC)C(OC(=O)CCCCCCCC)C1OC(=O)CCCCCCCC (mixture of isomers) [Ex 1.11]
gelling of DC556 (5% cellobiose ester in DC556): g22
gelling of Fluid AP [1]: gel
gelling of IPM (5% cellobiose ester in IPM): sol
gelling of ISA (5% cellobiose ester in ISA): g22
gelling of Mineral oil [2]: g22
gelling of Polydecene [3]: gel
gelling of DC556 (10% cellobiose ester in DC556): gel
gelling of Fluid AP [4]: gel
gelling of IPM (10% cellobiose ester in IPM): sol
gelling of ISA (10% cellobiose ester in ISA): g22
gelling of Mineral oil [5]: g22
gelling of Polydecene [6]: gel

CCCCCCCCC(=O)OCC1OC(OC2C(COC(=O)CCCCCCCC)OC(OC(=O)c3ccc(-c4ccccc4)cc3)C(OC(=O)CCCCCCCC)C2OC(=O)CCCCCCCC)C(OC(=O)CCCCCCCC)C(OC(=O)CCCCCCCC)C1OC(=O)CCCCCCCC (mixture of isomers) [Ex 1.15]
gelling of DC556 (5% cellobiose ester in DC556): gel
gelling of Fluid AP [1]: gel
gelling of ISA (5% cellobiose ester in ISA): gel
gelling of Mineral oil [2]: gel
gelling of Polydecene [3]: gel
gelling of DC556 (10% cellobiose ester in DC556): gel
gelling of Fluid AP [4]: gel
gelling of ISA (10% cellobiose ester in ISA): gel
gelling of Mineral oil [5]: gel
gelling of Polydecene [6]: gel

CCCCCCCCC(=O)OCC1OC(OC2C(COC(=O)CCCCCCCC)OC(OC(=O)CC)C(OC(=O)CCCCCCCC)C2OC(=O)CCCCCCCC)C(OC(=O)CCCCCCCC)C(OC(=O)CCCCCCCC)C1OC(=O)CCCCCCCC (mixture of isomers) [Ex 1.16]
gelling of DC556 (5% cellobiose ester in DC556): gel
gelling of Fluid AP [1]: gel
gelling of ISA (5% cellobiose ester in ISA): gel
gelling of Mineral oil [2]: gel
gelling of Polydecene [3]: gel
gelling of DC556 (10% cellobiose ester in DC556): gel
gelling of Fluid AP [4]: gel
gelling of ISA (10% cellobiose ester in ISA): gel
gelling of Mineral oil [5]: gel
gelling of Polydecene [6]: gel

CCCCCCCCC(=O)OCC1OC(OC2C(COC(=O)CCCCCCCC)OC(OC(=O)CCC)C(OC(=O)CCCCCCCC)C2OC(=O)CCCCCCCC)C(OC(=O)CCCCCCCC)C(OC(=O)CCCCCCCC)C1OC(=O)CCCCCCCC (mixture of isomers) [Ex 1.18]
gelling of DC556 (5% cellobiose ester in DC556): gel
gelling of Fluid AP [1]: gel
gelling of ISA (5% cellobiose ester in ISA): sg22
gelling of Mineral oil [2]: g22
gelling of Polydecene [3]: gel
gelling of DC556 (10% cellobiose ester in DC556): gel
gelling of Fluid AP [4]: gel
gelling of ISA (10% cellobiose ester in ISA): gel
gelling of Mineral oil [5]: gel
gelling of Polydecene [6]: gel

CCCCCCCCC(=O)OCC1OC(OC2C(COC(=O)CCCCCCCC)OC(OC(=O)CCCC)C(OC(=O)CCCCCCCC)C2OC(=O)CCCCCCCC)C(OC(=O)CCCCCCCC)C(OC(=O)CCCCCCCC)C1OC(=O)CCCCCCCC (mixture of isomers) [Ex 1.20]
gelling of DC556 (5% cellobiose ester in DC556): g22
gelling of Fluid AP [1]: g22
gelling of ISA (5% cellobiose ester in ISA): sg22
gelling of Mineral oil [2]: g22
gelling of Polydecene [3]: gel
gelling of DC556 (10% cellobiose ester in DC556): g22
gelling of Fluid AP [4]: gel
gelling of ISA (10% cellobiose ester in ISA): g22
gelling of Mineral oil [5]: g22
gelling of Polydecene [6]: gel

CCCCCCCCC(=O)OCC1OC(OC2C(COC(=O)CCCCCCCC)OC(OC(=O)CCCCC)C(OC(=O)CCCCCCCC)C2OC(=O)CCCCCCCC)C(OC(=O)CCCCCCCC)C(OC(=O)CCCCCCCC)C1OC(=O)CCCCCCCC (mixture of isomers) [Ex 1.21]
gelling of DC556 (5% cellobiose ester in DC556): g22
gelling of Fluid AP [1]: gel
gelling of ISA (5% cellobiose ester in ISA): sg22
gelling of Mineral oil [2]: g22
gelling of Polydecene [3]: gel
gelling of DC556 (10% cellobiose ester in DC556): gel
gelling of Fluid AP [4]: gel
gelling of ISA (10% cellobiose ester in ISA): g22
gelling of Mineral oil [5]: g22
gelling of Polydecene [6]: gel

CCCCCCCCC(=O)OCC1OC(OC2C(COC(=O)CCCCCCCC)OC(OC(=O)CCCCCC)C(OC(=O)CCCCCCCC)C2OC(=O)CCCCCCCC)C(OC(=O)CCCCCCCC)C(OC(=O)CCCCCCCC)C1OC(=O)CCCCCCCC (mixture of isomers) [Ex 1.22]
gelling of DC556 (5% cellobiose ester in DC556): g22
gelling of Fluid AP [1]: gel
gelling of ISA (5% cellobiose ester in ISA): sg22
gelling of Mineral oil [2]: sol
gelling of Polydecene [3]: gel
gelling of DC556 (10% cellobiose ester in DC556): g22
gelling of Fluid AP [4]: gel
gelling of ISA (10% cellobiose ester in ISA): g22
gelling of Mineral oil [5]: g22
gelling of Polydecene [6]: gel

CCCCCCCCCCCC(=O)OC1OC(COC(=O)CCCCCCCC)C(OC2OC(COC(=O)CCCCCCCC)C(OC(=O)CCCCCCCC)C(OC(=O)CCCCCCCC)C2OC(=O)CCCCCCCC)C(OC(=O)CCCCCCCC)C1OC(=O)CCCCCCCC (mixture of isomers) [Ex 1.23]
gelling of DC556 (5% cellobiose ester in DC556): gel
gelling of Fluid AP [1]: sg
gelling of ISA (5% cellobiose ester in ISA): g22
gelling of Mineral oil [2]: g22
gelling of Polydecene [3]: gel
gelling of DC556 (10% cellobiose ester in DC556): gel
gelling of Fluid AP [4]: gel
gelling of ISA (10% cellobiose ester in ISA): g22
gelling of Mineral oil [5]: g22
gelling of Polydecene [6]: gel

CCCCCCCCCCCCCC(=O)OC1OC(COC(=O)CCCCCCCC)C(OC2OC(COC(=O)CCCCCCCC)C(OC(=O)CCCCCCCC)C(OC(=O)CCCCCCCC)C2OC(=O)CCCCCCCC)C(OC(=O)CCCCCCCC)C1OC(=O)CCCCCCCC (mixture of isomers) [Ex 1.24]
gelling of DC556 (5% cellobiose ester in DC556): gel
gelling of Fluid AP [1]: gel
gelling of ISA (5% cellobiose ester in ISA): g22
gelling of Mineral oil [2]: g22
gelling of Polydecene [3]: gel
gelling of DC556 (10% cellobiose ester in DC556): gel
gelling of Fluid AP [4]: gel
gelling of ISA (10% cellobiose ester in ISA): gel
gelling of Mineral oil [5]: g22
gelling of Polydecene [6]: gel

CCCCCCCCCC(=O)OCC1OC(OC2C(COC(=O)CCCCCCCCC)OC(OC(=O)c3ccccc3)C(OC(=O)CCCCCCCCC)C2OC(=O)CCCCCCCCC)C(OC(=O)CCCCCCCCC)C(OC(=O)CCCCCCCCC)C1OC(=O)CCCCCCCCC (mixture of isomers) [Ex 2.2]
gelling of DC556 (5% cellobiose ester in DC556): gel
gelling of Fluid AP [1]: gel
gelling of ISA (5% cellobiose ester in ISA): gel
gelling of Mineral oil [2]: gel
gelling of Polydecene [3]: gel
gelling of DC556 (10% cellobiose ester in DC556): gel
gelling of Fluid AP [4]: gel
gelling of ISA (10% cellobiose ester in ISA): gel
gelling of Mineral oil [5]: gel
gelling of Polydecene [6]: gel

CCCCCCCCCC(=O)OCC1OC(OC2C(COC(=O)CCCCCCCCC)OC(OC(C)=O)C(OC(=O)CCCCCCCCC)C2OC(=O)CCCCCCCCC)C(OC(=O)CCCCCCCCC)C(OC(=O)CCCCCCCCC)C1OC(=O)CCCCCCCCC (mixture of isomers) [Ex 2.3]
gelling of DC556 (5% cellobiose ester in DC556): gel
gelling of Fluid AP [1]: gel
gelling of ISA (5% cellobiose ester in ISA): gel
gelling of Mineral oil [2]: gel
gelling of Polydecene [3]: gel
gelling of DC556 (10% cellobiose ester in DC556): gel
gelling of Fluid AP [4]: gel
gelling of ISA (10% cellobiose ester in ISA): gel
gelling of Mineral oil [5]: gel
gelling of Polydecene [6]: gel

CCCCCCCCCC(=O)OCC1OC(OC2C(COC(=O)CCCCCCCCC)OC(OC(C)=O)C(OC(=O)CCCCCCCCC)C2OC(=O)CCCCCCCCC)C(OC(=O)CCCCCCCCC)C(OC(=O)CCCCCCCCC)C1OC(=O)CCCCCCCCC (mixture of isomers) [Ex 2.4]
gelling of DC556 (5% cellobiose ester in DC556): gel
gelling of Fluid AP [1]: gel
gelling of ISA (5% cellobiose ester in ISA): gel
gelling of Mineral oil [2]: gel
gelling of Polydecene [3]: gel
